{"source": "patent US20080269162A1", "about": "“Novel Medicaments for Anti-Retroviral Treatments” (priority 2006, published 2008)", "system": "NDK virus", "test": "Number of syncitia in MT4 cell culture infected by NDK virus", "assay_type": "cell-based, HIV", "design": "key to Number of Syncitia in the Culture (wells), J3 / Number of Syncitia in the Culture (wells), J4 / Number of Syncitia in the Culture (wells), J5 / Number of Syncitia in the Culture (wells), J6: the absence of syncitia is indicated by a minus (−) sign; the (+), +, ++, ++T signs indicate an increasing number of syncitia in each well; the (+), +, ++, ++T signs indicate an increasing number of syncitia in each well; the (+), +, ++, ++T signs indicate an increasing number of syncitia in each well; the (+), +, ++, ++T signs indicate an increasing number of syncitia in each well; The indication “T” indicates the death of the cells", "details": "for Number of Syncitia in the Culture (wells), J3: day 3; for Number of Syncitia in the Culture (wells), J4: day 4; for Number of Syncitia in the Culture (wells), J5: day 5; for Number of Syncitia in the Culture (wells), J6: day 6", "protocol": "Then infection of the cells was carried out by adding to each well, with the exception of those wells being used as control cells, 50 μL of previously titrated virus dilution.\nAfter an additional hour of incubation, the plate was centrifuged and the supernatant containing the residual virus was discarded.\nAfter 3 days of culture, the cells were diluted to half and the syncitia were observed using the inverse microscope from day 3 to day 7 after having been placed in suspension.\nIn the third case, the MT4 cell culture was preincubated for one hour at 37° C., then the cells were infected, the whole was subjected to incubation for one hour at 37° C., then to centrifugation with the elimination of the supernatant containing the virus that had not penetrated into the cells.\nIn each of the four types of experiments that have just been described, and as previously indicated, the cells were diluted to half after three days of culture and then the syncitia were observed using the inverted microscope from day 3 to day 7.\nIn the experiments described in greater detail hereinafter, the absence of syncitia is indicated by a minus (−) sign and the (+), +, ++, ++T signs indicate an increasing number of syncitia in each well.\nThe indication “T” indicates the death of the cells.", "key": {"[1]": {"details": "Continuous, before, during and after infection, 0.4 μm"}}}
{"substance": "3′-azidothymidine [AZT]", "values": [{"measurement": "Number of Syncitia in the Culture (wells), J3", "setting": "After infection, 0.4 μm", "value": "−"}, {"measurement": "Number of Syncitia in the Culture (wells), J4", "setting": "After infection, 0.4 μm", "value": "−"}, {"measurement": "Number of Syncitia in the Culture (wells), J5", "setting": "After infection, 0.4 μm", "value": "−"}, {"measurement": "Number of Syncitia in the Culture (wells), J6", "setting": "After infection", "value": "−"}, {"measurement": "Number of Syncitia in the Culture (wells), J3", "setting": "Before infection, 0.4 μg/mL", "value": "−"}, {"measurement": "Number of Syncitia in the Culture (wells), J4", "setting": "Before infection, 0.4 μg/mL", "value": "+ and −"}, {"measurement": "Number of Syncitia in the Culture (wells), J5", "setting": "Before infection, 0.4 μg/mL", "value": "++ and −"}, {"measurement": "Number of Syncitia in the Culture (wells), J6", "setting": "Before infection, 0.4 μg/mL", "value": "T and (+)"}, {"measurement": "Number of Syncitia in the Culture (wells), J3", "setting": "[1]", "value": "−"}, {"measurement": "Number of Syncitia in the Culture (wells), J4", "setting": "[1]", "value": "−"}, {"measurement": "Number of Syncitia in the Culture (wells), J5", "setting": "[1]", "value": "−"}, {"measurement": "Number of Syncitia in the Culture (wells), J6", "setting": "Continuous, before, during and after infection", "value": "−"}, {"measurement": "Number of Syncitia in the Culture (wells), J3", "setting": "During infection, 0.4 μm", "value": "−"}, {"measurement": "Number of Syncitia in the Culture (wells), J4", "setting": "During infection, 0.4 μm", "value": "−"}, {"measurement": "Number of Syncitia in the Culture (wells), J5", "setting": "During infection, 0.4 μm", "value": "−"}, {"measurement": "Number of Syncitia in the Culture (wells), J6", "setting": "During infection", "value": "−"}]}
